Assay [1] has as its system mixed biofilms of S. oralis, S. gordonii, S. mitis, S. sanguinis, S. salivarius, and S. mutans JM11. Description: Photodynamic antimicrobial assay, multispecies biofilm. The format is cell-based. The procedure:
To gauge C16-RB selectivity for S. mutans, similar assays were conducted against multispecies biofilms. Mixed biofilms were seeded by diluting (1:5000) a mixture of equal parts S. oralis, S. gordonii, S. mitis, S. sanguinis, S. salivarius, and S. mutans JM11 (made from overnight cultures) into TH with 1% sucrose, 1% glucose, and 1% mannose. Biofilms were incubated and treated as described above with the addition of vitamin C or potassium gluconate. After the addition of agent and 5 min incubation, biofilms were washed 1× with 1×PBS prior to light exposure. After PDT and biofilm disruption, survivors were plated on TH, and TH supplemented with 800 μg/mL spectinomycin, which allowed for quantitation of surviving total oral streptococci and surviving S. mutans, respectively.
C16-RB was next evaluated for selectivity in mixed cultures containing S. mutans and non-cariogenic oral streptococci that compete for the same niche on the tooth surface. We utilized mixed biofilms of S. mutans transformed with spectinomycin resistance (strain JM11, Merritt, et al., 2005), plus S. oralis, S. gordonii, S. mitis, S. sanguinis, and S. salivarius. The mixed cultures were grown 24 and then treated with RB or C16-RB as indicated, plus potassium gluconate to minimize killing of untargeted bacteria by reducing the superoxide-producing activity of the free C16-RB not bound to S. mutans. […]

Assay [2] concerns S. mutans UA140 biofilms. As to the kind of experiment: Photodynamic antimicrobial assay, single-species biofilm. As to conditions: 24 h S. mutans biofilm; 5 μM, no light. The format is cell-based, Streptococcus mutans. The procedure:
To evaluate C16-RB against monoculture biofilms, S. mutans UA140 was grown overnight in TH prior to inoculation for biofilm formation. For biofilms, 1:5000 dilution of overnight culture was made into TH with 1% sucrose in 2 mL centrifuge tubes (200 μL volume) and grown 24 h under anaerobic conditions. After incubation, biofilms were treated for 5 min with 5 or 25 μM C16-RB or 5 μM RB in 1×PBS, or PBS alone, followed by removal of supernatant and exposure to 5 min blue light (emission 400-550 nm, power 400 mW/cm^2) from an Astralis 7 (Ivoclar Vivodent, Austria) handheld LED commonly used as a dental curing light. The light source was suspended 4 cm from the tube bottom (even with the mouth of the tube). A duplicate set of samples were left covered to serve as dark controls. After treatment, biofilms were mechanically disrupted and plated to determine cfu/mL.
After synthesis, the basic photosensitization potential of C16-RB was assessed by challenging mature single-species S. mutans biofilms (grown 24 h) with C16-RB or unmodified RB, followed by blue emission from a dental curing light.

In assay [3] the test system is BHK-21 (ATCC CRL-10) fibroblasts. Description: Cytotoxicity (Promega CellTiterGlo assay). The format is cell-based, hamster. The procedure:
Streptococcus oralis ATCC 10557, Streptococcus gordonii (Challis), Streptococcus sanguinis (NY101), Streptococcus mitis ATCC 903, Streptococcus salivarius ATCC 13419 and S. mutans wild-type UA140 and JM11 (spectinomycin-resistant) strains were grown in Todd-Hewitt (TH) broth 37° C. in an anaerobic atmosphere of 80% N2, 10% CO2, and 10% H2. BHK-21 (ATCC CRL-10) fibroblasts were propagated in DMEM with 10% FBS, 1 mM sodium pyruvate, 100 units/mL penicillin G, and 100 μg/mL streptomycin at 37° C. with 5% CO2. Cells were detached with 0.25% trypsin and subcultured as recommended by the supplier.
The effect of RB and C16-RB on human fibroblasts was ascertained by utilizing the Promega CellTiterGlo assay, as described by the manufacturer. Briefly, fibroblasts were grown to confluence, detached, and seeded to 5,000 cells per well in a 96-well opaque walled, clear bottom 96-well plate (Nunc International). For long-term dark toxicity, cells were allowed to attach to for 18 h before the culture medium was replaced with medium plus serially-diluted RB or C16-RB (200 μM to 390 nM) or medium alone. After 18-24 h, equal volume Cell Titer Glo reagent was added to each well and mixed. Luciferace activity was then quantified to measure cell viability (Varian Fluorometer in Biolumenescence mode). To measure cytotoxicity after RB or C16-RB light exposure, cells were seeded at ˜10,000 cells per well and allowed to attach for 4 h. Cell growth medium was then replaced with RB or C16-RB containing medium, prior to exposure (a single well at a time) with blue light (400 mW/cm^2) suspended ˜3 cm from the well bottom. After exposure, cultures were disrupted with Cell Titer Glo and luciferase activity quantitated as above.
(In general: ATP-based viability assays read luminescence as a measure of living cells.)

For assay [4], the system named is B. subtilis. Description: MIC test / antimicrobial activity, B. subtilis. The format is cell-based, Bacillus subtilis. To be noted: B. subtilis. The procedure, abridged: (§1)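 Broth microdilution with ~1×10^5 cfu/mL organisms in TH broth (S. mutans) or Mueller-Hinton broth (other organisms). Peptides added as 2-fold serial dilutions, then incubated 18-24 h at 37° C. Experiments run 10 times.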

The subject of assay [5] is C. albicans. Description: MIC test / antimicrobial activity, C. albicans. The format is cell-based, Candida albicans. The procedure:
(§2) The active AMPs, STAMPs and the like can be identified and/or validated using an in vitro screening assay.
(§3) It will be appreciated that other assays as are well known in the art or that will become apparent to those having skill in the art upon review of this disclosure may also be used to identify active AMPs. Such assays include, for example, the assay described in Lehrer et al. (1988) J. Immunol.
(§4) Peptides were evaluated for basic antimicrobial activity by broth microdilution, as described previously (Eckert et al. (2006) Antimicrob Agents Chemother., 50: 3651-3657; Eckert et al. (2006) Antimicrob Agents Chemother., 50: 1480-1488). Briefly, ˜1×10^5 cfu/mL bacteria were diluted in TH (S. mutans), or Mueller-Hinton (MH) broth (all other organisms) and distributed to 96-well plates. Serially-diluted (2-fold) peptides were then added and the plates incubated at 37° C. for 18-24 h. […] All experiments were conducted 10 times.

Assay [6] deals with microorganisms. As to the kind of experiment: Morphology, biofilm and growth disrupting peptides (Table 5). The format is cell-based. Further details: key: A: Peptide aggregates; B: Less hyphal formation; Clumps; Diffuse clumps and small polyps; F: Diffuse growth; H: Thin; I: Growth inhibition; Microcolony formation; Rippled; Small polyps; Thick; W: Halo formation on top, microlonies on bottom. An excerpt:
In certain embodiments peptides that induce alterations in phenotype or other biological activities can also be used as antimicrobial effector moieties.

Assay [7] concerns A. niger. Description: MIC test / antimicrobial activity, A. niger. The format is cell-based, Aspergillus niger. The procedure:
as §2, §3, §4

Assay [8] deals with microorganisms. Description: Peptide activities: targeting/binding, antimicrobial, growth or phenotype altering (Tables 7, 8). The format is cell-based. To be noted: peptides having multiple activities.
The subject of assay [9] is T. rubrum. Description: MIC test / antimicrobial activity, T. rubrum. The format is cell-based, Trichophyton rubrum. Summed up: as §1
For assay [10], the system named is S. epidermidis. Description: MIC test (broth microdilution) / antimicrobial activity, S. epidermidis. The format is cell-based, Staphylococcus epidermidis. To be noted: S. epidermidis. The procedure:
as §2, §3, §4
A general note: In broth dilution the organism is exposed to a series of concentrations in liquid medium.

In assay [11] the test system is MRSA. Description: MIC test / antimicrobial activity, MRSA. The format is cell-based, Methicillin-resistant Staphylococcus aureus. The procedure, abridged:
as §1

In assay [12] the test system is E. faecalis. As to the kind of experiment: MIC test / antimicrobial activity, E. faecalis. The format is cell-based, Enterococcus faecalis. The procedure: as §2, §3, §4

One may read the IC50 as the concentration that inhibits the measured activity by half. For `O=C1OC2(c3cc(I)c(O)c(I)c3Oc3c2cc(I)c(O)c3I)c2c(Cl)c(Cl)c(Cl)c(Cl)c21` [RB, rose bengal], the “selectivity of photodynamic antimicrobial activity” value in assay [1] (blue light illumination, FIG. 22) is “strong indiscriminant photodynamic antimicrobial effects”. Further, the “ratio of surviving S. mutans:non-cariogenic streptococci cfu” value in assay [1] (potassium gluconate, blue light) is ~1. Moreover, the “decrease in cfu/mL, dark control” value in assay [2] was “appreciable decreases in cfu/mL were not observed”. For the same compound, in assay [3] (5 min w/blue light), 40 µM corresponded to half-maximal inhibition (IC50) and the “IC50 (μM) BHK” value was “light-dependent toxicity”. Also, inhibition in [3] (24 h dark) was half-maximal at 90 µM (IC50).

For MRFGSLALVAYDSAIKHSWPRPSSVRRLRM [PF-672], the “Organism MIC (μM)” value in assay [4] is “B. subtilis, 0.78 μM”; in assay [5] it was “C. albicans, 1.56 μM”; in assay [7] it was “A. niger, 3 μM”; in [9] it was “T. rubrum, 0.78 μM”; in assay [10], “S. epidermidis, 0.39 μM”; in assay [11], “MRSA, 1.56 μM”. Further, the “Organism MIC (μM)” value in assay [12] is reported as “E. faecalis, 3.13 μM”. The “Organism, effect” value is on record as “B. subtilis (I)” in assay [6] (B. subtilis); “C. albicans (I)” in assay [6] (C. albicans); “C. jeikeium (R)” in assay [6] (C. jeikeium); “E. faecalis (I)” in assay [6] (E. faecalis); “MRSA (I)” in assay [6] (MRSA); “S. epidermidis (I)” in assay [6] (S. epidermidis). Besides, the “Organism, effect” value in [6] (S. pneumoniae) is reported as “S. pneumoniae (I)”. The Activities entry in assay [8] is given as “G B M”.
